We go through 6 compounds from patent US6699498B1, “Transdermal therapeutic systems having improved stability and their production” (LTS Lohmann Therapie-Systeme AG, priority 1999, dated 2004).

A short description of data set [1]: Peroxide number (PON) of raw materials. Format: physicochemical. The following applies: raw material following approximately 6 months' storage at room temperature. The text has this: The peroxide content is commonly expressed by means of the so-called peroxide number PON, which indicates the amount of milliequivalents of active oxygen per kg of substance. There are various methods of determining the peroxide number. The most customary is to react a defined amount of substance in a chloroform/glacial acetic acid solution with an excess of iodide ions and then to back-titrate the resultant iodine using sodium thiosulfate. A less common method, which is restricted to aqueous solutions, is to react the substance with titanium(IV) ions and to measure the resultant peroxo complex by photometry. A semiquantitative test for peroxides which is particularly easy to implement is carried out using commercial […].
The table below lists the measured peroxide numbers of some exemplary substances used to produce reservoir and matrix systems, following approximately 6 months' storage at room temperature. The peroxide numbers were measured by the two first-mentioned methods.

Data set [2] can be described thus: Test reaction of active substance with t-butyl hydroperoxide under reflux. Format: physicochemical. To be noted: chloroform; for Identified degradation product in reaction with t-butyl hydroperoxide: reflux 6 hours. An excerpt: To determine the sensitivity of the active substance to oxidation reactions with hydroperoxides, an easily implemented test reaction has been developed. For this purpose, the active substance in chloroform or another appropriate solvent is reacted with t-butyl hydroperoxide under reflux. If oxidative degradation products of the active substance are found in this reaction mixture, they can be attributed to the reaction with hydroperoxide. Often, degradation of the active substance is also evident very simply from a discoloration of the test solution. The practical conclusion to be drawn from a positive outcome of the test reaction is that when formulating a transdermal system using this active substance the auxiliaries used should include only those which are substantially free from hydroperoxides.
80 ml of chloroform and 1 g of t-butyl hydroperoxide are added to 0.5 g of the active substance and this system is heated under reflux with stirring for 6 hours. The reaction mixture is subsequently assessed for its color and analyzed using an appropriate chromatographic method for degradation products formed.

Consider `CCCCCCCC/C=C\CCCCCCCCO` [Oleyl alcohol], for which the “PON (peroxide number)” value in data set [1] is reported as 50 milliequivalents of active oxygen per kg of substance.

For the compound `Cc1cc2c(OCC(CNC(C)(C)C)OC(=O)c3ccccc3)cccc2[nH]1` (stereo not drawn) [bopindolol], the “Color of reaction mixture with t-butyl hydroperoxide” value in data set [2] (reflux) was “yellowish discoloration which then becomes strongly brown”.

As to `CCCN(CCc1cccs1)[C@H]1CCc2c(O)cccc2C1` [N-0923 base], in data set [2], the “Identified degradation product in reaction with t-butyl hydroperoxide” value is listed as 1,2-dihydronaphth-8-ol.

In the case of `CCCN1C[C@H](CSC)C[C@@H]2c3cccc4[nH]cc(c34)C[C@H]21` [pergolide], in data set [2], the “Identified degradation product in reaction with t-butyl hydroperoxide” value was “Oxidation of the sulfide sulfur to the sulfoxide”.

With `CCOCCOCCO` [Diethylene glycol monoethyl ether], the “PON (peroxide number)” value in data set [1] was 120 milliequivalents of active oxygen per kg of substance.

Consider `C=C(C)[C@H]1CC=C(C)CC1` [Limonene], for which the “PON (peroxide number)” value in data set [1] is given as 15 milliequivalents of active oxygen per kg of substance.
